Experimental data reported in publication PMC7033309, “π-Helix controls activity of oxygen-sensing diguanylate cyclases” (Bioscience Reports, 2020).

Molecular target: T1, PccGCS (Pectobacterium carotovorum, UniProt C6D9C2, H237A/K238A)
T1 construct: gene PC1_2619; full-length PccGCS H237A/K238A (His-tagged)
T1 sequence (C6D9C2 1-471 H237A/K238A): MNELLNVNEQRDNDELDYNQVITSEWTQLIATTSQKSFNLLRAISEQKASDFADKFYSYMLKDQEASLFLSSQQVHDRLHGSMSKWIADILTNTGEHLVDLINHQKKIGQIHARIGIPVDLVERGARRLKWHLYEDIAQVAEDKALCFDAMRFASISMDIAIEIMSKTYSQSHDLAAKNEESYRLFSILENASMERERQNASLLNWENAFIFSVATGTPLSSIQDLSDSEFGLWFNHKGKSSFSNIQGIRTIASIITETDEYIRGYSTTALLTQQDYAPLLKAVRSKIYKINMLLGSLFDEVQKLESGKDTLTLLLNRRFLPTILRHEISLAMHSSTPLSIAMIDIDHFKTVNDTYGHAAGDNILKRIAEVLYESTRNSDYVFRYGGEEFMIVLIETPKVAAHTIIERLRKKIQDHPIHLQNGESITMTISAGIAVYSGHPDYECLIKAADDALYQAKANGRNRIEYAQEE
Assay: isothermal titration calorimetry, […]°C
Format: binding

Nc1nc2c(ncn2[C@@H]2O[C@H](COP(=O)(O)CP(=O)(O)OP(=O)(O)O)[C@@H](O)[C@H]2O)c(=O)[nH]1 [GpCpp, guanosine-5′-[(α,β)-methyleno]triphosphate]
Kd: 9.7 ± 3.9 µM
